{"source": "patent US7999001B2", "about": "(priority 2007, dated 2011)", "key": {"EBOV-GFP": {"tested_on": "EBOV-GFP", "assay": "microbe, parasite or virus in culture", "assay_type": "cell-based, Ebola Zaire virus", "settings": "for IC50: Zaire ebolavirus, Vero C1008, read-out: IC50 (read from graphs of % of control infection)"}, "[1]": {"tested_on": "EBOV-GFP (recombinant Ebola Zaire virus expressing green fluorescence protein)", "assay": "microbe, parasite or virus in culture", "assay_type": "cell-based", "settings": "Zaire ebolavirus, Vero C1008, 48 h, read-out: EBOV % Inhibition (20 μM)"}, "[2]": {"tested_on": "Lassa virus (Josiah strain)", "assay_type": "cell-based"}, "[3]": {"tested_on": "influenza virus (H1N1 A/Texas strain)", "assay_type": "cell-based"}, "[4]": {"tested_on": "Rift Valley Fever Virus (ZH501 strain)", "assay_type": "cell-based"}, "[5]": {"tested_on": "MPXV-GFP (recombinant monkeypox virus expressing GFP, Zaire strain)", "assay": "microbe, parasite or virus in culture", "assay_type": "cell-based", "settings": "Vero C1008, in Primates, 48 h, read-out: Monkey Pox % Inhibition (20 μM)"}, "[6]": {"tested_on": "cowpox virus (CPXV, egfpCPV virus)", "set-up": "species or system mice", "settings": "mouse, in vivo"}, "GFP-EBOV": {"tested_on": "GFP-EBOV", "assay_type": "cell-based, Ebola Zaire virus"}}, "note": "Entries after “also recorded” stand apart in the source; their conditions may differ.", "data": [{"smiles": "CC(=O)NC1=C(Sc2ccc(Cl)cc2)C(=O)c2ccccc2C1=O", "note": "[NSC 128981, N-(3-((4-chlorophenyl)thio)-1,4-dioxo-1,4-dihydro-2-naphthalenyl)acetamide]", "values": [{"measurement": "IC50", "setting": "EBOV-GFP", "value": "~15", "unit": "µM"}, {"measurement": "inhibition at 20 µM", "setting": "[1]", "value": 97.7, "unit": "%"}]}, {"smiles": "N=C(N)c1ccc2oc(/C=C/c3cc4ccc(C(=N)N)cc4o3)cc2c1", "note": "[NSC 294202, 2-[(E)-2-(5-carbamimidoylbenzofuran-2-yl)ethenyl]benzofuran-6-carboximidamide]", "values": [{"measurement": "dose dependent antiviral activity toward EBOV-GFP", "setting": "EBOV-GFP", "value": "dose dependent antiviral activity"}, {"measurement": "IC50", "setting": "EBOV-GFP", "value": "~6", "unit": "µM"}, {"measurement": "antiviral activity toward LV (Lassa virus)", "setting": "[2]", "value": "showed antiviral activity"}, {"measurement": "inhibition at 20 µM", "setting": "[1]", "value": 71.2, "unit": "%"}, {"measurement": "antiviral activity toward influenza virus", "setting": "[3]", "value": "showed antiviral activity"}, {"measurement": "inhibition of influenza virus replication", "setting": "[3]", "value": "more than one log; also recorded: inhibit the replication"}, {"measurement": "antiviral activity toward RVFV", "setting": "[4]", "value": "showed antiviral activity"}]}, {"smiles": "O=C(Nc1ccc(C2=NCCN2)cc1)c1cc2ccc(C3=NCCN3)cc2[nH]1", "note": "[NSC 294206, 6-(4,5-dihydro-1H-imidazol-2-yl)-N-[4-(4,5-dihydro-1H-imidazol-2-yl)phenyl]-1H-indole-2-carboxamide]", "values": [{"measurement": "dose dependent antiviral activity toward EBOV-GFP", "setting": "EBOV-GFP", "value": "dose dependent antiviral activity"}, {"measurement": "inhibition at 20 µM", "setting": "[1]", "value": 61.5, "unit": "%"}, {"measurement": "inhibition at 20 µM", "setting": "[5]", "value": 86, "unit": "%"}]}, {"smiles": "N=C(N)c1ccc(-c2ccc(-c3ccc(C(=N)N)cc3)s2)cc1", "note": "[NSC 300510, 4-[5-(4-carbamimidoylphenyl)thiophen-2-yl]benzenecarboximidamide]", "values": [{"measurement": "dose dependent antiviral activity toward EBOV-GFP", "setting": "EBOV-GFP", "value": "dose dependent antiviral activity"}, {"measurement": "inhibition at 20 µM", "setting": "[1]", "value": 59.7, "unit": "%"}, {"measurement": "inhibition at 20 µM", "setting": "[5]", "value": 89.9, "unit": "%"}]}, {"smiles": "Cc1cc(NCCCN(C)C)c2ccc3c(ccc4c(NCCCN(C)C)cc(C)nc43)c2n1", "note": "[NSC 306365, N,N′-bis(3-dimethylaminopropyl)-3,9-dimethylquinolino[8,7-h]quinoline-1,7-diamine]", "values": [{"measurement": "IC50 toward EBOV (in words)", "setting": "EBOV-GFP", "value": "submicromolar"}, {"measurement": "dose dependent antiviral activity toward EBOV-GFP", "setting": "EBOV-GFP", "value": "dose dependent antiviral activity"}, {"measurement": "antiviral activity toward LV (Lassa virus)", "setting": "[2]", "value": "showed antiviral activity; also recorded: dose dependent inhibition"}, {"measurement": "inhibition of Lassa virus replication", "setting": "[2]", "value": "one log; also recorded: inhibit the replication"}, {"measurement": "inhibition at 20 µM", "setting": "[1]", "value": 99, "unit": "%"}, {"measurement": "inhibition at 20 µM", "setting": "[5]", "value": 99, "unit": "%"}, {"measurement": "antiviral activity toward influenza virus", "setting": "[3]", "value": "showed antiviral activity"}, {"measurement": "inhibition of influenza virus replication", "setting": "[3]", "value": "half log; also recorded: inhibit the replication"}, {"measurement": "mean time to death", "setting": "[6]", "value": "increase in the mean time to death; also recorded: prolongs the mean time to death"}, {"measurement": "antiviral activity toward RVFV", "setting": "[4]", "value": "showed antiviral activity; also recorded: dose-dependent inhibition; also recorded: dose dependent antiviral activity"}]}, {"smiles": "c1cc2cc(-c3cc4ccc(C5=NCCN5)cc4[nH]3)[nH]c2cc1C1=NCCN1", "note": "[NSC 330688, 6-(4,5-dihydro-1H-imidazol-2-yl)-2-[6-(4,5-dihydro-1H-imidazol-2-yl)-1H-indol-2-yl]-1H-indole]", "values": [{"measurement": "inhibition at 20 µM", "setting": "[1]", "value": 51.3, "unit": "%"}, {"measurement": "inhibition at 20 µM", "setting": "[5]", "value": 84.9, "unit": "%"}]}, {"smiles": "NC(N)=NN=Cc1ccc2cc(-c3ccc(/C=N/N=C(N)N)cc3)sc2c1", "note": "[NSC 341909, 2-[[2-[4-[(E)-(diaminomethylidenehydrazinylidene)methyl]phenyl]benzothiophen-6-yl]methylideneamino]guanidine]", "values": [{"measurement": "inhibition at 20 µM", "setting": "[1]", "value": 57.5, "unit": "%"}, {"measurement": "inhibition at 20 µM", "setting": "[5]", "value": 95.8, "unit": "%"}]}, {"smiles": "N=C(N)c1ccc2oc(C=Cc3nc4cc(C(=N)N)ccc4[nH]3)cc2c1", "note": "[NSC 369723, 2-(2-(5-(amino(imino)methyl)-1-benzofuran-2-yl)vinyl)-1H-benzimidazole-5-carboximidamide]", "values": [{"measurement": "dose dependent antiviral activity toward EBOV-GFP", "setting": "EBOV-GFP", "value": "dose dependent antiviral activity"}, {"measurement": "IC50", "setting": "EBOV-GFP", "value": "~4", "unit": "µM"}, {"measurement": "antiviral activity toward LV (Lassa virus)", "setting": "[2]", "value": "not"}, {"measurement": "inhibition at 20 µM", "setting": "[1]", "value": 94, "unit": "%"}, {"measurement": "antiviral activity toward influenza virus", "setting": "[3]", "value": "not"}, {"measurement": "effect of 24 hours pre-treatment of cells versus treatment during and after infection", "setting": "GFP-EBOV", "value": "more effective than treatment during and after infection"}, {"measurement": "antiviral activity toward RVFV", "setting": "[4]", "value": "not"}]}]}
